pIC50: −log10 of the molar value.

The results in this text go back to PMC3771683 (Analytical chemistry, 2013).

For assay [1], the system named is Mapk, Akt, and Rps6ka1 kinases. It counts as cell-based. The conditions noted are these: MCF 10A cells treated with EGF or lapatinib vs DMSO; Western blotting and KAYAK. On the technique in general: Immunoblotting shows a protein as a band on a membrane.
In another assay the target is T1, Tp53rk (Homo sapiens, UniProt Q96S44).
T1 sequence (Q96S44 1-253): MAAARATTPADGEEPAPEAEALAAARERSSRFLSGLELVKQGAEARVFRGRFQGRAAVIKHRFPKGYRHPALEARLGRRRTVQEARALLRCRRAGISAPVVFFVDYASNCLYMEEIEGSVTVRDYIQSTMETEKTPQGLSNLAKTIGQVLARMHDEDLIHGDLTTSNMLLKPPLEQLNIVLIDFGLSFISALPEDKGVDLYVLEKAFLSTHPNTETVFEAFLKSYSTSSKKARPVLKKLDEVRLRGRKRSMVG
The assay is described as follows: AAP protein-level capture with TMT, staurosporine competition in HeLa lysate. Format: binding.

For the molecule `CS(=O)(=O)CCNCc1ccc(-c2ccc3ncnc(Nc4ccc(OCc5cccc(F)c5)c(Cl)c4)c3c2)o1` [lapatinib], in assay [1], the “activation of Mapk, Akt, and Rps6ka1 kinases” value is “inhibition when lapatinib was present”.
Broadly, the pIC50 is the IC50 on a negative log10 scale, so that one unit is a factor of ten. As for `CN[C@@H]1C[C@H]2O[C@@](C)([C@@H]1OC)n1c3ccccc3c3c4c(c5c6ccccc6n2c5c31)C(=O)NC4` [staurosporine], the pIC50 at Tp53rk is 4.14.
For the molecule “EGF: stimulates EGFR and numerous downstream kinases”, the “activation of Mapk, Akt, and Rps6ka1 kinases” value in assay [1] is listed as “substantial activation”.
